{"source": "patent US8088892B2", "about": "“Inhibitors of proteins from the Rho-GEF family” (Centre National de la Recherche Scientifique (C.N.R.S.), priority 2002, dated 2012)", "type_in_all_cases": "cell-based", "key": {"[1]": {"tested_on": "TrioGEFD2-mediated RhoA activation", "assay": "RhoA activity assay (Rhotekin RBD pull-down) in COS cells", "settings": "COS cells co-transfected, 48 hours", "source_text": "FIG. 5B represents the inhibitory effect of TRIPα on TrioGEFD2-mediated RhoA activation in intact cells using the RhoA activity assay, COS cells were transfected with GFP-TRIPα (left line), TrioGEFD2 (middle line) or both (right line). Cell lysates were subjected to GST-pulldown using the recombinant RBD (RhoA binding domain) fragment of the RhoA-specific effector Rhotekin. The presence of the GTP-bound form of RhoA and of the total RhoA protein was detected using a monoclonal anti-RhoA antibody and is represented in the upper two panels. GFP-TRIPα and TrioGEFD2 expression in the cell lysates is shown in the lower two panels.\nQuantification of the RhoA activity assay is shown in the right part of the figure. The y-axis represents the ratio between active RhoA and total RhoA, in arbitrary units.\nThe Inventors then wanted to assess the inhibition by TRIPα of TrioGEFD2-mediated activation of endogenous RhoA in intact cells. To do so, the RhoA activity assay was used to detect the active GTP-bound form of RhoA (Ren et al., 1999). Briefly, COS cells were transfected as described in FIG. 5A with TrioGEFD2 in absence or in the presence of GFP-TRIAPα. 48 hours after transfection, cell lysates were subjected to GST-pull down using 20 μg of the recombinant RBD (RhoA binding domain) fragment of the RhoA-specific effector Rhotekin, that binds only to the activated GTP-bound form of RhoA."}, "[2]": {"tested_on": "ectopically expressed TrioGEFD2 in PC12 cells", "assay": "NGF-induced neurite outgrowth in PC12 cells expressing TrioGEFD2", "settings": "PC12 co-transfected with TrioGEFD2, NGF 50 ng/ml 16 hours", "protocol": "FIG. 5C represents the inhibition by TRIPα of the TrioGEFD2 effect in neuronal morphology. Immunofluorescence images of PC12 cells co-transfected with HA-TrioGEFD2 and either GFP-TRIPα (panels d, e, f) or GFP alone panels a, b, c) are shown. After 48 hours of expression, cells were treated for 16 hours with NGF (nerve growth factor) (50 ng/ml) and fixed. Expression of GFP and GFP-TRIPα was directly visualised (a, d) whereas overexpressed TrioGEFD2 was detected using the 12CA5 anti-HA antibody followed by AMCA-conjugated anti-mouse IgG (b, e). Filamentous actin was stained with Rhodamine-conjugated Phalloidin (c, f). Scale bar: 20 μm.\nCells were transfected with HA-tagged TrioGEFD2 (left side of the figure), myc-tagged KalGEFD2 (middle of the figure) or RhoAV14 (a constitutively active mutant of RhoA) (right side of the figure), and with either GFP-TRIPα (white bars), GFP-TRIPβ (hatched bars) or GFP alone (black bars). Cells were processed as described in FIG. 5C and the number of co-transfected cells with neurites was counted.\nNumerous reports have established Rho-GTPases as key regulators of neuronal morphology (Luo, 2000). In neuronal cell lines, activation of RhoG, Rac and Cdc42 induces neurite outgrowth, while RhoA stimulation antagonises this effect by promoting neurite retraction (Katoh et al., 2000; Kozma et al., 1997; Yamaguchi et al., 2001). The PC12 cell line is a useful cellular model for studying Nerve Growth Factor (NGF)-induced neuronal differentiation. PC12-E2 cells were plated on collagen-coated 12 mm coverslips as described previously (Estrach et al., 2002) and transfected with the Lipofectamine Plus reagent (Life Technologies) according to the manufacturer's instructions. After transfection and differentiation with NGF (Promega, 50 ng/ml in DMEM medium supplemented with 0.5% horse serum (HS)) for 16 hours, PC12 cells were fixed and permeabilised as described (Estrach et al., 2002). […] Images were recorded using a Hamamatsu CCD camera. All transfections were repeated at least three times, and an average of 200 cells was counted each time. […]"}, "[3]": {"tested_on": "PC12 cells", "assay": "NGF-induced neurite outgrowth", "settings": "NGF 50 ng/ml", "protocol": "PC12 were transfected with GFP-TRIPα (lack squares) or GFP (white diamonds) and subjected to a time-course exposure to NGF (50 ng/ml). At each time-point cells were fixed and the number of transfected cells with neurites was counted from at least 200 cells.\n(§1) Since Trio is an activator of RhoA and is expressed in PC12 cells (Estrach et al., 2002), it was analysed whether TRIPα could interfere with serum-induced neurite retraction in NGF-differentiated PC12 cells. […] After NGF treatment, cells were subjected to serum addition (DMEM medium supplemented with 10% HS and 5% fetal calf serum (FCS)) from 0 to 15 min (FIG. 6A). Cells were then fixed and permeabilised (Estrach et al., 2002) and observed as described in FIG. 5. Cells with neurites are defined as cells with neurites of at least twice the length of the cell body.\nHowever, since the NGF treatment was performed for 16 hours, it was still possible that the effect of TRIPα on the NGF-differentiation signal was masked by the long NGF exposure. To test this hypothesis, PC12 cells expressing GFP-TRIPα or […] were subjected to a time-course exposure to NGF (50 ng/ml) for 1 to 24 hours."}, "[4]": {"tested_on": "NGF-differentiated PC12 cells", "assay": "Serum-induced neurite retraction", "settings": "0 to 15 min after serum addition", "protocol": "FIG. 6A represents histograms quantifying the effects of GFP-TRIPα or GFP on serum induced neurite retraction in NGF-differentiated PC12 cells. The X-axis represents the time after serum addition in minutes and the Y-axis represents the percentage of transfected cells with neurites.\nCells were transfected with GFP-TRIPα (white bars) or GFP (black bars) and differentiated with NGF (50 ng/ml). Serum was added and neurite retraction was followed for 15 minutes. The number of transfected cells with neurites was counted from at least 200 cells in 3 independent experiments.\nas §1"}}, "note": "Entries after “also recorded” stand apart in the source; their conditions may differ."}
{"sequence": "AREGADGAICGYNLATLVMLGPSERVFCPLCEPCSSDIYELM [TRIPα, 42-amino acid peptide corresponding to the variable region of TRIAPα]", "values": [{"measurement": "Inhibition of TrioGEFD2-mediated RhoA activation in intact cells", "setting": "[1]", "result": "able to inhibit TrioGEFD2-mediated RhoA activation"}, {"measurement": "Reversion of TrioGEFD2 inhibition of NGF-induced neurite outgrowth", "setting": "[2]", "result": "only the TrioGEFD2 effect is reversed"}, {"measurement": "Effect on NGF-induced neurite outgrowth, time course", "setting": "[3]; 1 to 24 hours", "result": "enhances NGF-induced neurite outgrowth"}, {"measurement": "Effect on NGF-induced neurite outgrowth after 16 hours NGF", "setting": "[3]; 16 hours", "result": "had no visible effect on the NGF pathway; also recorded: does not seem to have an effect"}, {"measurement": "Effect on serum-induced neurite retraction", "setting": "[4]", "result": "prevents serum- and LPA-induced neurite retraction; also recorded: significantly inhibited this retraction"}]}
